Where a chain is given by its changes, count along the chain named.

In data set [1] the test system is rats with spacial recognition disorder caused by repeated cerebral ischemia. The data set is described as follows: Maze radiated in 8 directions after repeated cerebral ischemia (Example 9). In kind it is in vivo. Particulars: 40 mg/kg i.p. twice a day for 6 days. On the procedure:
Wister albino male rats (weight: 250 to 280 g) were used, and training of a task of a maze which was radiated in 8 directions was conducted once a day to make the rats acquire spacial recognition. The rats which had acquired spacial recognition were subjected to cauterization of vertebral arteries and operation of peeling common carotid arteries according to the method of Pulsinelli, Brierly, et al. (Stroke, vol. 10, p. 267, 1979). […] The ischemia treatment was carried out by repeating ischemia twice, i.e., ligating common carotid arteries for 10 minutes by using clips without anesthesia and further ligating them for 10 minutes after 1 hour from restarting of blood flow. Retention trial was carried out one week after the ischemia treatment, and the results were represented by the number of correct choices among first 8 choices, whether all of 8 baits were taken or not, or the number of errors within an observation period a maximum of which was 10 minutes. Further, a pharmaceutical effect was evaluated by 3 ranks, i.e., remarkably effective (showing that the number of correct choices is 7 or more and the number of errors is 1 or less), effective (showing that the number of correct choices is 7 or more and the number of errors is 2 or 3) and ineffective (showing that the number of errors is 4 or more), and represented as an improvement rate thereof.
In the above experiment, examined was influence of continuous administration of 40 mg/kg of PDMP (i.p.) twice a day for 6 days started after 24 hours from the ischemia treatment, which was exerted on the spacial recognition disorder one week after the repeated cerebral ischemia, in the task of the maze which was radiated in 8 directions using the rats.

For data set [2], the system named is LacCer (lactosylceramide) synthase. The data set is described as follows: Enzyme activity in treated cerebral cortex culture: LacCer synthase. In kind it is cell-based, rat. Particulars: culture treated with 15 μM for 40 hours. Here is the method: (§1) After the mixture was cultured for 40 hours, the resulting culture was harvested and pulverized in a homogenized buffer (50 mM Hepes, 0.32M sucrose) by using a chip type sonicator to prepare an enzyme source.
GlcCer as an acceptor substrate was reacted with 0.315mM UDP (uridine diphosphate)-^3 H galactose (2.7×10^8 cpm) as a donor substrate. After the mixture containing ^3 H-LacCer which was a reaction product was developed by a silica gel thin layer plate, a portion corresponding to the reaction product was scratched off, and its radioactivity was counted.

For another data set, the system named is neurites. Particulars: J. Biochem., vol. 110, pp. 96-103, 1991; cited from earlier work.
A further data set concerns GD3 synthase. The data set is described as follows: Enzyme activity in treated cerebral cortex culture: GD3 synthase. The class given is cell-based, rat. The note with it: culture treated with 15 μM for 40 hours. Here is the method:
as §1
GM3 as an acceptor substrate was reacted with 30 mM CMP-^14 C sialic acid (2.88×10^6 cpm) as a donor substrate. After the mixture containing a reaction product was developed by a reverse phase thin layer plate, a portion corresponding to the reaction product was scratched off, and its radioactivity was counted.

For data set [3], the system named is primary cultured rat cerebral neurocytes. The data set is described as follows: Ganglioside content (ganglioside-binding sialic acid) of primary cultured neurocytes. The class given is cell-based. On the procedure:
Rat fetuses at the 18th day of pregnancy were taken out, and forebrain base portions of the fetuses were extracted aseptically and cut into small pieces by scissors. After the pieces were treated with papain (in a phosphate buffer containing 0.02% L-cysteine containing 180 U papain, 0.02% bovine serum albumin and 0.5% glucose, pH 7.4, at 37° C. for 30 minutes), they were washed with a mixed solution (DF medium) of 1:1 of a Dulbecco modified Eagle's medium and a Ham's F12 medium and suspended in a DF medium containing 5% bovine fetal serum and 5% equine serum. This neurocyte suspension was charged into a culture plate with 24 wells (Falcon, Primaria) in an amount of 1×10^6 cells/well. […] After completion of the culture, the cells in the respective wells were washed with a phosphate buffer and recovered by rubber policeman. Further, a ganglioside fraction was extracted by adding chloroform/methanol/water (1:2:0.8) and shaking the mixture for 5 minutes. […] The no addition group (control) which was defined as 100% was compared with the test groups, and the results are shown in Table 1.

Data set [4] relates to rat cerebral cortex neurocytes. As to the kind of experiment: Synapse formation measured as frequency of intracellular Ca2+ fluctuation. The class given is cell-based. Particulars: FIG. 4. The text has this: Further, as a method of measuring synapse formation relatively simply and easily, there has been developed a multipoint observation system of Ca^2+ in neurocytes using Fura-2, and it has been confirmed that the number of synapse formation is in direct proportion to frequency of intracellular Ca^2+ fluctuation in synchronization therewith (Br. J. Pharmacol., 89, 191-198, 1986; Neurosci. Lett., 78, 69-74, 1987). We investigated influences of L-threo-FDMP and D-threo-PDMP exerted on synapse formation between rat cerebral cortex neurocytes by using this method, and the results are shown below.

Another data set concerns GSL. The note with it: J. Lipid. Res., vol. 28, pp. 565-571, 1987; cited from earlier work.
Data set [5] has as its target T1, GlcCer (glucosylceramide) synthase (Rattus norvegicus, UniProt Q9R0E0).
T1 construct: primary culture of cerebral cortex tissue specimens of Wister albino rats; endogenous in cells; host or cells: primary culture of rat (Wistar) cerebral cortex, sonicated after 40 h with compound
T1 sequence (Q9R0E0 1-394): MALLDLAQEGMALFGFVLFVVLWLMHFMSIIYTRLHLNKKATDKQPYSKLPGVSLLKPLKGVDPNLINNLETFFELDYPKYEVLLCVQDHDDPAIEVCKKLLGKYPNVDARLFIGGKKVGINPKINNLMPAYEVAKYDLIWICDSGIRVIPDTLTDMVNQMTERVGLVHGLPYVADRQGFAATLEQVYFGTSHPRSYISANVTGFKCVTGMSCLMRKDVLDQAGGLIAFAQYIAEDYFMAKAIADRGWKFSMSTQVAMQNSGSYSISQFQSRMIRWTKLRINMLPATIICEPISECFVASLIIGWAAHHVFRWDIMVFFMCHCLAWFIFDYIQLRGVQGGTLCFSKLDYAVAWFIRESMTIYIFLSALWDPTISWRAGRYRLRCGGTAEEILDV
As to the kind of experiment: Enzyme activity in treated cerebral cortex culture: GlcCer synthase. In kind it is cell-based. Particulars: culture treated with 15 μM for 40 hours. On the procedure: as §1
After ^3 H-GlcCer which was a reaction product was extracted with t-butyl methyl ether, the extract was concentrated and evaporated to dryness, and its radioactivity was measured.

Data set [6] has as its target T2, glucosylceramide biosynthesizing enzyme (Mus musculus, UniProt O88693).
T2 sequence (O88693 1-394): T1 sequence (Q9R0E0 1-394) with E96D, R164K, K249R, A377T
The note with it: J. Lipid. Res., vol. 28, pp. 565-571, 1987; cited from earlier work.

The subject of the next data set is GM3 synthase. As to the kind of experiment: Enzyme activity in treated cerebral cortex culture: GM3 synthase. In kind it is cell-based, rat. Particulars: culture treated with 15 μM for 40 hours. Here is the method:
as §1
After the mixture containing a reaction product was developed by a reverse phase thin layer plate, a portion corresponding to the reaction product was scratched off, and its radioactivity was counted.

In data set [7] the test system is acyl-CoA: sphingosine N-acyltransferase. As to the kind of experiment: Enzyme activity in treated cerebral cortex culture: acyl-CoA: sphingosine N-acyltransferase. In kind it is cell-based, rat. Particulars: culture treated with 15 μM for 40 hours. Here is the method: as §1
0.25 mM sphingosine and 0.45 mM ^14 C palmitoyl CoA (8.3×10^5cpm) were reacted in the presence of ATP (adenosine 5'-triphosphate). After ceramide which was a reaction product was subjected to solvent extraction, the extract was concentrated and evaporated to dryness, and its radioactivity was counted.

Another data set has as its system explants. As to the kind of experiment: Neurite-extending activity in explants (Example 6). The class given is cell-based. The note with it: 5 μM to 15 μM, cultured for 40 hours, FIG. 5. Here is the method:
1.6×10^5 cells/well of explants were sowed in a plate with 24 wells containing a DMEM medium. […] After the mixture was cultured for 40 hours, the resulting culture was fixed and then dyed with Coomassie, and nervous fibers extended to have a length which was longer than a diameter of […] were counted.

Data set [8] deals with serine palmitoyltransferase. As to the kind of experiment: Enzyme activity in treated cerebral cortex culture: serine palmitoyltransferase. Particulars: culture treated with 15 μM for 40 hours. In kind it is cell-based, rat. On the procedure: as §1
1.5 mM palmitoyl CoA (coenzyme A) and 0.1 mM ^14 C serine (8.3×10^5 cpm) were reacted in the presence of 0.5 mM pyridoxalphosphoric acid. After 3-keto-sphingosine which was a reaction product was extracted, the extract was concentrated and evaporated to dryness, and its radioactivity was counted.

Another data set has as its system ICR mice. The data set is described as follows: General toxicity, continuous 10-day intraperitoneal administration. The class given is in vivo. The note with it: 100 mg/kg/day intraperitoneally for 10 days.
The mark [9] stands for this setting: started 24 hours after ischemia, retention trial one week after ischemia, FIG. 7.

In the case of `CCCCCCCCCC(=O)NC(CN1CCOCC1)C(O)c1ccccc1` (stereo not drawn) [PDMP, 1-phenyl-2-decanoylamino-3-morpholino-1-propanol], in data set [1] (setting [9]), the “number of the correct choices versus vehicle group” value was “increase of the number of the correct choices” and the “number of the errors versus vehicle group” value was “decrease of the number of the errors”. Moreover, the “improvement rate: rats in the remarkably effective rank” value in [1] (4/8 rats, FIG. 8) was 50%.
`CCCCCCCCCC(=O)N[C@H](CN1CCOCC1)[C@H](O)c1ccccc1` [D-threo-PDMP, 1-phenyl-2-decanoylamino-3-morpholino-1-propanol]: the “Accelerating activity when enzyme activity of control is defined as 100%: LacCer synthase” value in data set [2] is reported as “no change in the activities was observed”. The extension of neurites entry in the data set on neurites is “extension of neurites is suppressed”. Besides, the “Accelerating activity when enzyme activity of control is defined as 100%: GD3 synthase” value in the data set on GD3 synthase is recorded as “no change in the activities was observed”. Further, in data set [3] (20 μM, 3 days), the “ganglioside level as compared with that of the control” value was “decrease in the ganglioside level”. In [3] (Rattus norvegicus, 72 h, culture for 3 days, control defined as 100%), this compound yielded an activity at 20 µM of 63.4%. Besides, in [4], the “number of synapse formation (frequency of intracellular Ca2+ fluctuation)” value was “suppressedly acted on synapse formation”. In addition, the “intracellular content of all GSL” value with GSL is on record as “extremely decreases an intracellular content of all GSL”. For the same compound, in data set [5], the “Accelerating activity when enzyme activity of control is defined as 100%: GlcCer-synthase” value was “no change in the activities was observed”. For the same compound, the “inhibition of glucosylceramide biosynthesizing enzyme” value in data set [6] was “specifically inhibits a glucosylceramide biosynthesizing enzyme”. Also, in the data set on GM3 synthase, the “Accelerating activity when enzyme activity of control is defined as 100%: GM3 synthase” value is reported as “no change in the activities was observed”. The “Accelerating activity when enzyme activity of control is defined as 100%: Acyl-CoA: sphigosine N-acyltransferase” value in data set [7] was “no change in the activities was observed”. For the same compound, the “effect on neurite extension” value with explants is “moderate suppression of neurite extension”. The “Accelerating activity when enzyme activity of control is defined as 100%: Serine palmitoyltransferase” value in data set [8] was “no change in the activities was observed”.
`CCCCCCCCCC(=O)N[C@H](CN1CCOCC1)[C@H](O)c1ccccc1` (relative stereo) [DL-threo-PDMP, 1-phenyl-2-decanoylamino-3-morpholino-1-propanol]: the “decrease in weight / decrease in neutrophile, acidocyte due to suppression of bone marrow” value in the data set on ICR mice (in Myrj 52) is given as “neither decrease in weight nor decrease in neutrophile, acidocyte, etc. due to suppression of bone marrow was observed”. Further, in the data set on ICR mice (observation for 3 months), the “abnormality on observation for 3 months” value is on record as “no abnormality was observed”.

(Values after patent US5849326A, “Method for treating neuronal diseases via administration of 2-acylaminopropanol derivatives” (Seikagaku Corporation, priority 1993, dated 1998).)
